Key:
Type in all cases: cell-based
[1] = tested on: normal ovary epithelial cells T80; test: MTT cell viability assay, T80; conditions: T80, 24 h, concentration equivalent to Dox, read-out: IC50 (relative cellular viability)
Description: (§1) Cells were treated with various concentrations of GQDs-FA-Dox (0, 0.25, 0.5, 1, 2, and 4 μM equivalent to Dox) for 24 h and 48 h, respectively. Cell viability was determined by the MTT assay. In brief, the cells were treated with GQDs-FA-Dox conjugates, 10 μL MTT (5 mg/ml) was added into each well and incubated for 4 h, culture medium was removed and 100 μL DMSO was added to dissolve formazan crystals. Absorbance was read at 560 nm for formazan and 670 nm for background by Synergy H4 hybrid multi-mode microplate reader (BioTek).
(§2) To determine the effective dosage of GQDs-FA-Dox on ovarian cancer cells and normal cells, a dose-course MTT assay was done on Ovcar3 cells. The cells were treated with a series of concentration of DOX, GQDs-FA-Dox, and GQDs-Dox for 0.01 to 4 μM (equivalent to Dox concentration) for 24 h.

ovarian cells Ovcar3 = test: MTT cell viability assay, Ovcar3; conditions: Homo sapiens, OVCAR-3; Ovcar3, 24 h, concentration equivalent to Dox; read-out: IC50 (relative cellular viability)
Description: as §1, §2

[2] = tested on: ovarian cancer cells ovcar3; test: Colony formation assay, ovcar3
Description: Colony formation assays were performed with ovarian cancer cells ovcar3 and ovarian surface epithelial cells T80 to examine the impact of DOX, […]-Dox, or GQDs-Dox on the cell growth inhibition.

SMILES	IC50 [1] [nM]	IC50 (ovarian cells Ovcar3) [nM]	colony growth ([2]; ovcar3)	effect of folic acid on ovcar3 cells in response of GQDs-FA-DOX ([2]; ovcar3, colony formation, co-treatment with GQDs-FA-DOX)
COc1cccc2c1C(=O)c1c(O)c3c(c(O)c1C2=O)C[C@@](O)(C(=O)CO)C[C@@H]3O[C@H]1C[C@H](N)[C@H](O)[C@H](C)O1 [DOX, Doxorubicin]	860	930	strongly inhibited	
Nc1nc2ncc(CNc3ccc(C(=O)N[C@@H](CCC(=O)O)C(=O)O)cc3)nc2c(=O)[nH]1 [Folic acid, folic acid]				protective effect
